Assay results: PubChem BioAssay AID588827 (Broad Institute, 2011)
Inconclusive results are not listed.

test system: NIH3T3 R4 HSF-1 GFP reporter, heat shock, 48 h; assay: decrease of heat-induced HSF-1 GFP reporter, dose response, NIH3T3 R4 cells, GFP/RFP, cherry-pick, set 4 (AID 588827)

Row | SMILES | AC50
1 | Cc1cc([N+](=O)[O-])c2ccccc2[n+]1[O-] | 11 µM
2 | CC(C)(C)c1ccc2c(c1)OC(C(=O)N/N=C\c1ccc[nH]1)CO2 (stereo not given) | 0.515 µM
3 | Cn1c(=O)c([N+](=O)[O-])c(Cl)c2ccccc21 | 14.2 µM
4 | CCc1ccc(C2=NNC(=Nc3cccc(S(=O)(=O)N(C)C)c3)SC2)cc1 | 15.7 µM
5 | COc1ccc(C[C@H]2NC[C@H](O)[C@H]2OC(C)=O)cc1 | 0.361 µM
6 | CCOC(=O)Cc1nnc2c(Nc3ccccc3F)nc3nonc3n12 | 7.38 µM
7 | Cc1ccc(NC2=C/C(=N\S(=O)(=O)c3cccs3)c3ccccc3C2=O)c(C)c1 | 1.42 µM
8 | O=S(=O)(c1ccc2c(c1)C(=NO)c1cc(S(=O)(=O)N3CCCCC3)ccc1-2)N1CCCCC1 | 2.49 µM
9 | O=C(CCl)N(c1ccccc1)C1CCCCC1 | 5.18 µM
10 | O=C(CCl)Nc1cn(-c2ccccc2)nc1-c1ccc(F)cc1 | 5.2 µM
11 | COc1ccccc1-c1cc(C(F)(F)F)nc(S(=O)(=O)CCCC(=O)NCc2ccc(F)cc2)n1 | 5.26 µM
12 | CCOC(=O)c1c(C)[nH]c2c1-c1ccccc1C(=O)C2=O | 1.23 µM
13 | C=C(C)C(=O)O[C@H]1C/C(C)=C\C(=O)/C=C(\C)[C@H](O)[C@@H]2OC(=O)C(=C)[C@@H]21 | 12.9 µM
14 | C(=N\NC1=Nc2cccc3cccc1c23)/c1ccccn1 | 19.2 µM
15 | CC12CCC(C/C1=N\N=C1\NC(=O)/C(=C\c3ccc(Cl)cc3)S1)C2(C)C (stereo not given) | 2.11 µM
